From ChEMBL document CHEMBL1155650, “New oleanene triterpenoid saponins from Madhuca longifolia” (J Nat Prod, 2000) come the findings set out here.

The species named for the test is Homo sapiens. Kind of test: Cytotoxicity against human Kato 3 cells. Type of test: functional, cell-based.

Calls of active or inactive are those of the source. No cut-off for these calls is given here.

Regarding `C[C@@H]1O[C@@H](O[C@H]2[C@H](OC(=O)[C@]34CCC(C)(C)C[C@H]3C3=CC[C@@H]5[C@@]6(C)C[C@H](O)[C@H](O)[C@@](C)(CO)[C@@H]6[C@H](O)C[C@@]5(C)[C@]3(C)CC4)OC[C@H](O)[C@@H]2O)[C@H](O)[C@H](O)[C@H]1O`, the result was inactive.
Then `CC1(C)CC[C@]2(C(=O)O[C@@H]3OC[C@H](O)[C@H](O)[C@H]3O)CC[C@]3(C)C(=CC[C@@H]4[C@@]5(C)C[C@H](O)[C@H](O)[C@@](C)(CO)[C@@H]5[C@H](O)C[C@]43C)[C@@H]2C1`, with “inactive”; and `CC1(C)CC[C@]2(C(=O)O[C@@H]3OC[C@H](O)[C@H](O)[C@H]3O)CC[C@]3(C)C(=CC[C@@H]4[C@@]5(C)CC(=O)[C@H](O[C@@H]6O[C@H](CO)[C@@H](O)[C@H](O)[C@H]6O)[C@@](C)(CO)[C@@H]5[C@H](O)C[C@]43C)[C@@H]2C1`, with “inactive”; and `CC1(C)CC[C@]2(C(=O)O[C@@H]3OC[C@H](O)[C@H](O)[C@H]3O)CC[C@]3(C)C(=CC[C@@H]4[C@@]5(C)CC(=O)[C@H](O)[C@@](C)(CO)[C@@H]5[C@H](O)C[C@]43C)[C@@H]2C1`, with “inactive”.
